Assays:
[1] = Lipophilicity by reversed-phase thin-layer chromatography (RP-TLC), isopropanol-water mobile phase; type: physicochemical; settings: for mRM (arithmetic mean of the experimental retention factors RM): RP-18F254s plates, isopropanol 70–90% in water; for RM0 (relative lipophilicity, RM extrapolated to pure water): Soczewinski Wachtmeister equation, isopropanol 70–90%; for PC1(RM): score of first principal component of RM values at isopropanol 70–90%; for b (slope): slope of RM versus isopropanol concentration; for φ0 (chromatographic hydrophobic index): φ0 = RM0/b; for lipophilicity (in words): chromatographic lipophilicity profile / lipophilicity descriptors
Description: Lipophilicity was assessed by RP-TLC, using RP-[…] standard silica gel plates (20 × 10 cm) as the stationary phase. An isopropanol:water binary mixture was used as the mobile phase, with different isopropanol concentrations 70%, 75%, 80%, 85%, 90% for thiazolo[3,2-b][1,2,4]triazole (1a–16a) and imidazo[2,1-b][1,3,4]thiadiazole (1b–16b) compounds.
The standard solutions (1 mg/mL) used to investigate the lipophilicity of the synthesized compounds were prepared in dichloromethane (1a–16a compounds) and dimethylsulfoxide (1b–16b compounds). From the obtained solutions, 2 µL was applied manually on the chromatographic plates, at 15 mm from the baseline and 5 mm from the edges of the plate at a spot distance of 12 mm. This procedure was repeated three times. The chromatographic plate upward elution was performed in a chromatographic chamber previously saturated for 30 min with mobile phase, at normal atmospheric pressure and room temperature. The migration distance of the eluent was 80 mm. The chromatographic plates were visually inspected under UV light at λ = 254 nm to identify the compounds. In order to minimize possible experimental errors, three measurements were performed for each mobile phase. The retention factors (Rf) were calculated as the average of three determinations in each case.
Based on the Rf values, a variety of parameters can be determined to estimate the lipophilicity of the compounds. The isocratic retention factor (RM) was determined using the Bate–Smith and Westall equation [34]:RM = log(1/Rf − 1) where Rf = x/y and x = the migration distance of the compound, and y = the migration distance of the solvent front.
There is usually a linear correlation between the RM values and the concentration of the organic component in the mobile phase. For a better estimation of lipophilicity, RM0 was determined as the extrapolated retention factor, considering pure water as the mobile phase (Soczewinski Wachtmeister equation):RM = RM0 + bC where b is the slope of the curve, which indicates the rate at which the solubility of the compound increases in the mobile phase, C is the concentration of the isopropanol in the mobile phase, and RM0 is the RM of the compound when the concentration of isopropanol is zero (extrapolated value).
To estimate the lipophilicity of the compounds, φ0, representing the chromatographic hydrophobicity index, was also determined. It corresponds to the percentage (by volume) of the organic component in the mobile phase and can be determined according to the following formula:φ0 = RM0/b
In order to assess the lipophilicity of compounds, other more relevant lipophilicity parameters have been used, such as the arithmetic mean of the experimental retention factors (mRM), and the score associated with the first principal component (PC1(RM)) obtained by applying principal component analysis (PCA) to the retention parameters RM [35, 36]. The determination of these parameters eliminates the errors that appear during the extrapolation procedure (when determining RM0) so that the results are more accurate.

[2] = parameters: method as in doi:10.31925/farmacia.2018.5.20, PMID 30248903; settings: in vivo; cited from earlier work
[3] = parameters: method as in doi:10.31925/farmacia.2018.5.20, PMID 30248903; settings: acute inflammation, compared to diclofenac; cited from earlier work

mRM (arithmetic mean of the experimental retention factors RM) [1]	RM0 (relative lipophilicity, RM extrapolated to pure water) [1]	PC1(RM) [1]	b (slope) [1]	φ0 (chromatographic hydrophobic index) [1]	lipophilicity (in words) [1]	Compound	pain threshold [2]	in vivo anti-inflammatory activity [3]
0.166	2.126	−0.701	−0.025	86.79		COc1ccc(-c2csc3nc(-c4ccc(Cl)cc4)nn23)cc1 [Compound 8a]		
0.148	2.183	−0.634	−0.026	84.92		COc1ccc(-c2cn3nc(-c4ccc(Cl)cc4)sc3n2)cc1 [Compound 8b]		
0.168	2.132	−0.711	−0.025	87.00	high lipophilicity	COc1ccc(-c2nc3scc(-c4ccc(Br)cc4)n3n2)cc1 [Compound 10a]		
0.222	1.990	−0.899	−0.022	90.04	high lipophilicity	COc1ccc(-c2nn3cc(-c4ccc(Br)cc4)nc3s2)cc1 [Compound 10b]		
0.032	2.217	−0.226	−0.027	81.22		COc1ccc(-c2nc3scc(-c4ccc(C(F)(F)F)cc4)n3n2)cc1 [Compound 11a]		
0.110	1.973	−0.498	−0.023	84.69		COc1ccc(-c2nn3cc(-c4ccc(C(F)(F)F)cc4)nc3s2)cc1 [Compound 11b]		
−0.435	1.309	1.448	−0.022	60.05		NS(=O)(=O)c1ccc(-c2nc3scc(-c4ccc(Br)cc4)n3n2)cc1 [Compound 14a]		
−0.416	1.399	1.382	−0.023	62.17		NS(=O)(=O)c1ccc(-c2nn3cc(-c4ccc(Br)cc4)nc3s2)cc1 [Compound 14b]		
−0.504	1.534	1.694	−0.026	60.16		NS(=O)(=O)c1ccc(-c2nc3scc(-c4ccc(C(F)(F)F)cc4)n3n2)cc1 [Compound 15a]		
−0.504	1.725	1.693	−0.028	62.28		NS(=O)(=O)c1ccc(-c2nn3cc(-c4ccc(C(F)(F)F)cc4)nc3s2)cc1 [Compound 15b]		
−0.529	0.864	1.788	−0.017	49.68		COc1ccc(-c2csc3nc(-c4ccc(S(N)(=O)=O)cc4)nn23)cc1 [Compound 16a]		
−0.511	0.938	1.723	−0.018	52.12		COc1ccc(-c2cn3nc(-c4ccc(S(N)(=O)=O)cc4)sc3n2)cc1 [Compound 16b]		

Further lines, the molecule ahead of its results:

Compound	mRM (arithmetic mean of the experimental retention factors RM) [1]	RM0 (relative lipophilicity, RM extrapolated to pure water) [1]	PC1(RM) [1]	b (slope) [1]	φ0 (chromatographic hydrophobic index) [1]	lipophilicity (in words) [1]	pain threshold [2]	in vivo anti-inflammatory activity [3]
c1ccc(-c2nc3scc(-c4ccccc4)n3n2)cc1 [Compound 1a]	0.056	1.810	−0.309	−0.022	82.63		increased pain threshold	significantly reduced acute inflammation in vivo
c1ccc(-c2cn3nc(-c4ccccc4)sc3n2)cc1 [Compound 1b]	0.072	1.955	−0.365	−0.024	83.18		increased pain threshold	significantly reduced acute inflammation in vivo
Brc1ccc(-c2csc3nc(-c4ccccc4)nn23)cc1 [Compound 2a]	0.200	2.130	−0.821	−0.024	88.37	high lipophilicity		
Brc1ccc(-c2cn3nc(-c4ccccc4)sc3n2)cc1 [Compound 2b]	0.174	2.507	−0.730	−0.029	85.86	high lipophilicity		
FC(F)(F)c1ccc(-c2csc3nc(-c4ccccc4)nn23)cc1 [Compound 3a]	0.065	2.229	−0.341	−0.027	82.54			
FC(F)(F)c1ccc(-c2cn3nc(-c4ccccc4)sc3n2)cc1 [Compound 3b]	0.062	2.410	−0.331	−0.029	81.96			
COc1ccc(-c2csc3nc(-c4ccccc4)nn23)cc1 [Compound 4a]	0.031	1.612	−0.216	−0.020	81.40	low lipophilicity	increased pain threshold	significantly reduced acute inflammation in vivo
Clc1ccc(-c2nc3scc(-c4ccccc4)n3n2)cc1 [Compound 5a]	0.178	2.131	−0.743	−0.024	87.32			
Clc1ccc(-c2nc3scc(-c4ccc(Br)cc4)n3n2)cc1 [Compound 6a]	0.324	2.582	−1.267	−0.028	91.57	the most lipophilic compounds		
Clc1ccc(-c2nn3cc(-c4ccc(Br)cc4)nc3s2)cc1 [Compound 6b]	0.239	2.454	−0.960	−0.028	87.94	the most lipophilic compounds		
FC(F)(F)c1ccc(-c2csc3nc(-c4ccc(Cl)cc4)nn23)cc1 [Compound 7a]	0.186	2.648	−0.775	−0.031	85.99			
FC(F)(F)c1ccc(-c2cn3nc(-c4ccc(Cl)cc4)sc3n2)cc1 [Compound 7b]	0.086	2.468	−0.414	−0.030	82.28			
